The numbers were not newly measured in patent US20050169988A1, “High molecular weight, lipophilic, orally ingestible bioactive agents in formulations having improved bioavailability” (Shaklee Corporation, priority 2001, published 2005), which cites them from elsewhere.

On to `COC1=C(OC)C(=O)C(C/C=C(\C)CC/C=C(\C)CC/C=C(\C)CC/C=C(\C)CC/C=C(\C)CC/C=C(\C)CC/C=C(\C)CC/C=C(\C)CC/C=C(\C)CCC=C(C)C)=C(C)C1=O` [CoQ10, 2,3-dimethoxy-5-methyl-6-decaprenyl-1,4-benzoquinone], for which the Solubility in water result is “practically insoluble in water”.
